{
  "source": "BindingDB's records for doi:10.1021/jm048993p",
  "about": "(Merck Research Laboratories, 2005)",
  "molecular_target": "Peroxisome proliferator-activated receptor alpha (Mesocricetus auratus)",
  "test": "Agonist activity against hamster Peroxisome proliferator activated receptor alpha",
  "data": [
    {"smiles": "CCCc1cc2c(C(F)(F)F)noc2c(CCC)c1OC(C)(C)C(=O)O", "note": "[2-(5,7-Dipropyl-3-trifluoromethyl-benzo[d]isoxazol-6-yloxy)-2-methyl-propionic acid]", "values": [
      {"measurement": "EC50", "result": 460, "unit": "nM"}
    ]}
  ]
}
